According to patent publication US5610310A, “Cyclic lipid derivatives as potent PAF antagonists” (Pohang Iron & Steel Co., Ltd, priority 1995, dated 1997):

Columns and labels:
[1] = test system: PAF-induced [^14 C]-serotonin release, rabbit platelets; assay: Inhibitory action on PAF-induced [^14 C]-serotonin release; type: cell-based, rabbit (New Zealand white); details: Oryctolagus cuniculus, Platelet, PAF 1×10^-9 M; for inhibition at 0.2 µM: test compound 2 × 10^-7 M; for inhibition at 0.05 µM: test compound 5 × 10^-8 M; for inhibition at 0.005 µM: test compound 5 × 10^-9 M
Experimental: Inhibitory action on PAF-induced [^14 C]-serotonin release
Blood was collected from the hearts of conscious New Zealand white male rabbits weighing 2 to 3 kg. The blood was immediately subjected to a centrifuge at 1400 rpm for 10 minutes to obtain platelet rich plasma(PRP).PRP was incubated with a trace mount of [^14 C]-serotonin for 20 minutes at 22° C. Prelabelled platelets were prepared by centrifugation at 3500 rpm for 10 minutes. The test compound was added to 80 μl of [^14 C] serotonin-labeled platelets in plastic test tubes, and the mixture was incubated for 2 minutes. PAF (1×10^-9 M) was then added to the reaction mixture and incubated for additional 2 minutes at which time 10 μl of cold formaldehyde was added to stop the reactions. The tubes were immediately cooled to 4° C. and centrifuged at 12000 rpm for 2 minutes. The supernatants (80 μl) were assayed for percentage of [^14 C] serotonin release by the conventional methods of measuring ^14 C counts.

[2] = test system: PAF-induced platelet aggregation, rabbit platelet-rich plasma; assay: Inhibitory action on PAF-induced platelet aggregation; type: cell-based, rabbit (New Zealand white); details: Oryctolagus cuniculus, rabbit PRP, PAF 5×10^-9 M, 37° C.
Experimental: Inhibitory action on PAF-induced platelet aggregation Blood was collected from the […] of conscious New Zealand white male rabbits weighing 2 to 3 kg using citric acid as an anticoagulant (one volume pan of 3% citric acid relative to 9 volume parts of the whole blood). […] PRP was diluted with PPP to adjust the number of platelets to about 3×10^5 /μl. […] Platelet aggregation was then examined by means of turbidimetry [Born, Nature, 194, 927(1962)] with dual channel aggegometer (Chrono-Log. Corp., Havertown, Pa.). As the control, physiological saline without test sample was used. The platelet aggregation inhibiting activities of the test sample are expressed as IC50, that is the concentration of the compound at which 50% of the aggregation is inhibited.

[3] = target: T1, PAF receptor (rabbit platelet membranes) (Oryctolagus cuniculus, UniProt G1TEI7); assay: PAF Receptor Binding Assay; details: 0.6 nM [^3 H]C18 -PAF, 60 minutes, room temperature, calculated as IC50/2
T1 construct: Rabbit platelets were prepared by centrifugation and washing; tissue Pel-Freez (Rogers, AR); host or cells: rabbit platelets (washed, from citrated whole blood; lysed membranes)
Experimental: PAF Receptor Binding Assay Citrated whole rabbit blood was obtained from Pel-Freez(Rogers, AR). Rabbit platelets were prepared by centrifugation and washing. The platelets were lysed by freeze-thawing and sonification; Platelet membranes were prepared by centrifugation and washing. Final membrane preparation were stored frozen in 10 mM Tris/5 mM MgCl2 /2 mM EDTA (TME buffer, pH 7.0) with 0.25M sucrose added for membrane stabilization. […] The final volume of the assay was 100 μl. […] The […] and removed. The bound radioactivity was quantitated with a Berthold TLC-Linear Analyzer model LB2842. […] Experiments were repeated at least once. […] Ki values of inhibitory binding constants were calculated according to the methods of the literature[Cheng et al., Biochem.

T1 sequence (G1TEI7 1-342): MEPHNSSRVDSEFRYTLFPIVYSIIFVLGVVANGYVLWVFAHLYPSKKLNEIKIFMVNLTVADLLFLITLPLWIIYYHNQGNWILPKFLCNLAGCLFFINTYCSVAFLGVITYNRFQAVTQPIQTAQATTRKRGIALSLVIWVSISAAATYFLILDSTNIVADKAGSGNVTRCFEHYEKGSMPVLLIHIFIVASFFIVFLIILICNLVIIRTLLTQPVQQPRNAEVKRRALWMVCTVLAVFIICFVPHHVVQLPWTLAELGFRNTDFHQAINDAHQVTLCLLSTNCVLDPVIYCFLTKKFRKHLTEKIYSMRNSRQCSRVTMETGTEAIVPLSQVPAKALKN

| SMILES | inhibition at 0.2 µM [1] [%] | inhibition at 0.05 µM [1] [%] | inhibition at 0.005 µM [1] [%] | IC50 [2] [µM] | Ki [3] [µM] |
| --- | --- | --- | --- | --- | --- |
| CCCCCCCCCCCCCCCCCCNC(=O)OCC1(COC(=O)N(Cc2cccc[n+]2CC)C(C)=O)CCC1 [Example 14, 2-[[N-Acetyl-N-[[[1-[[(octadecylcarbamoyl)oxy]methyl]-1-cyclobutyl]methoxy]carbonyl]amino]methyl]-1-ethyl-pyridinium iodide] | 99 | 98 | 18 | 0.118 | 0.0066 |
| CCCCCCCCCCCCCCCCOC[C@H]1C[C@@H](COC(=O)N(Cc2cccc[n+]2CC)C(C)=O)O1 (relative stereo) [Example 1, cis-2-[[N-Acetyl-N-[[[2-[(hexadecyloxy)methyl]-4-oxetanyl]methoxy]carbonyl]amino]methyl]-1-ethyl-pyridinium iodide] | – | 51 | – | 0.095 | 0.0212 |
| CCCCCCCCCCCCCCCCCCNC(=O)OCC1(COC(=O)CCCCC[n+]2ccsc2)COC1 [Example 13, 3-[5-[[[3-[[(Octadecylcarbamoyl)oxy]methyl]-3-oxetanyl]methoxy]carbonyl]pentyl]thiazolium bromide] | 92 | – | – | 0.382 | 0.0305 |
| CCCCCCCCCCCCCCCCCCNC(=O)OCC1(COC(=O)N(Cc2cccc[n+]2CC)C(C)=O)COC1 [Example 6, 2-[[N-Acetyl-N-[[[3-[[(octadecylcarbamoyl)oxy]methyl]-3-oxetanyl]methoxy]carbonyl]amino]methyl]-1-ethyl-pyridinium iodide] | 98 | 96 | – | – | – |
| CCCCCCCCCCCCCCCCOCC1(COC(=O)CCCCC[n+]2ccccc2)COC1 [Example 10, N-[5-[[[3-[(Hexadecyloxy)methyl]-3-oxetanyl]methoxy]carbonyl]pentyl]pyridinium bromide] | 86 | 43 | – | – | – |
| CCCCCCCCCCCCCCCCOC[C@H]1C[C@H](COC(=O)N(Cc2cccc[n+]2CC)C(C)=O)O1 (relative stereo) [Example 2, trans-2-[[N-Acetyl-N-[[[4-[(hexadecyloxy)methyl]-2-oxetanyl]methoxy]carbonyl]amino]methyl]-1-ethyl-pyridinium iodide] | 98 | 93 | 44 | 0.057 | 0.0147 |
